This passage reports IC50 results from patent US7507748B2, “Substituted aryl-amine derivatives and methods of use” (Amgen Inc., priority 2004, dated 2009).

In this test the test system is Human Umbilical Vein Endothelial cells. Description: VEGF-stimulated HUVEC proliferation assay. Format: cell-based. The conditions noted are these: 72 h, CyQuant, read-out: inhibited VEGF-stimulated HUVEC proliferation at a level. The procedure: Human Umbilical Vein Endothelial cells are purchased from Clonetics, Inc., as cryopreserved cells harvested from a pool of donors. These cells, at passage 1, are thawed and expanded in EBM-2 complete medium, until passage 2 or 3. The cells are trypsinized, washed in DMEM+10% FBS+antibiotics, and spun at 1000 rpm for 10 min. Prior to centrifugation of the cells, a small amount is collected for a cell count. After centrifugation, the medium is discarded, and the cells are resuspended in the appropriate volume of DMEM+10% FBS+antibiotics to achieve a concentration of 3×10^5 cells/mL. Another cell count is performed to confirm the cell concentration. The cells are diluted to 3×10^4 cells/mL in DMEM+10% FBS+antibiotics, and 100 μL of cells are added to a 96-well plate. The cells are incubated at 37° C. for 22 h.
Prior to the completion of the incubation period, compound dilutions are prepared. Five-point, five-fold serial dilutions are prepared in DMSO, at concentrations 400-fold greater than the final concentrations desired. 2.5 μL of each compound dilution are diluted further in a total of 1 mL DMEM+10% FBS+antibiotics (400× dilution). Medium containing 0.25% DMSO is also prepared for the 0 μM compound sample. At the 22-hour timepoint, the medium is removed from the cells, and 100 μL of each compound dilution is added. The cells are incubated at 37° C. for 2-3 h.
During the compound pre-incubation period, the growth factors are diluted to the appropriate concentrations. Solutions of DMEM+10% FBS+antibiotics, containing either VEGF or bFGF at the following concentrations: 50, 10, 2, 0.4, 0.08, and 0 ng/mL are prepared. For the compound-treated cells, solutions of VEGF at 550 ng/mL or bFGF at 220 ng/mL for 50 ng/mL or 20 ng/mL final concentrations, respectively, are prepared since 10 μL of each will be added to the cells (110 μL final volume). At the appropriate time after adding the compounds, the growth factors are added. VEGF is added to one set of plates, while bFGF is added to another set of plates. For the growth factor control curves, the media on wells B4-G6 of plates 1 and 2 are replaced with media containing VEGF or bFGF at the varying concentrations (50-0 ng/mL). The cells are incubated at 37° C. for an additional 72 h.
At the completion of the 72 h incubation period, the medium is removed, and the cells are washed twice with PBS. After the second wash with PBS, the plates are tapped gently to remove excess PBS, and the cells are placed at −70° C. for at least 30 min. The cells are thawed and analyzed using the CyQuant fluorescent dye (Molecular Probes C-7026), following the manufacturer's recommendations. The plates are read on a Victor/Wallac 1420 workstation at 485 nm/530 nm (excitation/emission). Raw data are collected and analyzed using a 4-parameter fit equation in XLFit. IC50 values are then determined.
For `CC1(C)CNCc2cc(NC(=O)c3cccnc3Nc3ccc4ccncc4c3)ccc21` [Example 41, N-(4,4-Dimethyl-1,2,3,4-tetrahydro-isoquinolin-7-yl)-2-(isoquinolin-7-ylamino)-nicotinamide], the IC50 was less than 1000 nM.

For the molecule `O=C(Nc1ccc(C(O)(C(F)(F)F)C(F)(F)F)cc1)c1cccnc1Nc1cnc2ccncc2c1` [Example 38, 2-([1,6]Naphthyridin-3-ylamino)-N-[4-(2,2,2-trifluoro-1-hydroxy-1-trifluoromethyl-ethyl)-phenyl]-nicotinamide], the IC50 was less than 1000 nM.

Turning to `CC1(C)CC(=O)Nc2cc(NC(=O)c3cccnc3Nc3ccc4ccncc4c3)ccc21` [Example 54, N-(4,4-Dimethyl-2-oxo-1,2,3,4-tetrahydro-quinolin-7-yl)-2-(isoquinolin-7-ylamino)-nicotinamide], the IC50 is less than 1000 nM.
